Results from PMC6152116, “Sulfonamide-Linked Ciprofloxacin, Sulfadiazine and Amantadine Derivatives as a Novel Class of Inhibitors of Jack Bean Urease; Synthesis, Kinetic Mechanism and Molecular Docking” (Molecules : A Journal of Synthetic Chemistry and Natural …, 2017).
Several values for one entry are separate records, joined by “and”; a condition that tells them apart may be missing. Identical values can stand only once. Entries after “also recorded” stand apart in the source; their conditions may differ. Like-named read-outs stand apart in the source and are kept apart here.

Tests used:
[1] = target: T1, jack bean urease (Canavalia ensiformis, UniProt P07374); experiment: biochemical
T1 sequence (P07374 whole entry, looked up): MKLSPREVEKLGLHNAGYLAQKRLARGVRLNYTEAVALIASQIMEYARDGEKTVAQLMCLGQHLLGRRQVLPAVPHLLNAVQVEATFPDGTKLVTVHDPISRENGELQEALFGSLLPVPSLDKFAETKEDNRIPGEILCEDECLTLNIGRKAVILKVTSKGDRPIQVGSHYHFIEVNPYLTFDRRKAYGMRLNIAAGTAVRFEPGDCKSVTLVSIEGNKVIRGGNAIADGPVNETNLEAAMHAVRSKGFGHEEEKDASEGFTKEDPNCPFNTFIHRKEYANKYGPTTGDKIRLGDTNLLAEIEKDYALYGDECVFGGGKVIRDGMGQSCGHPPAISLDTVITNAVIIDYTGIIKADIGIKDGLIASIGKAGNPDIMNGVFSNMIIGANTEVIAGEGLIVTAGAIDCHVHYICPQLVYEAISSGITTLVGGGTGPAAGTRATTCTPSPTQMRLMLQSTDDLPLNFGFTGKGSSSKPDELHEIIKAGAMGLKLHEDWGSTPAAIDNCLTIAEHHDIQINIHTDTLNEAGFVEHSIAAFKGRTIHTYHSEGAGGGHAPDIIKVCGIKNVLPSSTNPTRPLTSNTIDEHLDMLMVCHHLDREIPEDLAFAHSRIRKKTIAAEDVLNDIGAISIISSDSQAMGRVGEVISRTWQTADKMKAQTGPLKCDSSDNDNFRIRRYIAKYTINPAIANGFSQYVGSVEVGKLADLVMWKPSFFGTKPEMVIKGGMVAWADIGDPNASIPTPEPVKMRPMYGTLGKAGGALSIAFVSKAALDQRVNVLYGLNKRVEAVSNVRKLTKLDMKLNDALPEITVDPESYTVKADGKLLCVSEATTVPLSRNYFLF
Procedure: The jack bean urease action was determined by measuring the ammonia produced by the indophenol method described by Weatherburn. The reaction mixtures, containing 50 µL of buffer (100 mM urea, 10 mM dibasic potassium phosphate, 1 mM EDTA and 10 mM LiCl, pH 8.2), 20 µL of sample and 20 µL of the jack bean urease (5 U/mL) were added in a 96-well plate and the plate was incubated at 37 °C for 30 min. After incubation, 50 μL of phenol reagent (1%, w/v phenol and 0.005%, w/v sodium nitroprusside) and 50 μL of alkali reagents (0.5%, w/v NaOH and 0.1% NaOCl) were added in each well, and again the plate was incubated at 37 °C for 10 min. After the second incubation, the absorbance was checked at 625 nm, using a microplate reader (OPTIMax, Tunable, Sunnyvale, CA, USA). All reactions were performed in triplicate. The urease inhibition activity was calculated according to the following formula:Inhibition (%) = [(B − S)/B] × 100 where B and S are the optical densities of sample and blank. Thiourea was used as reference.

[2] = target: T1, jack bean urease; experiment: Kinetic mechanism study of urease inhibition (Lineweaver–Burk plots); assay type: biochemical; details: for Ki′ (ESI dissociation constant): from intercept versus inhibitor concentration; for Inhibition Type: urea as substrate
Procedure: Kinetic analysis was carried out to determine the mode of inhibition. […] Kinetics were determined by varying the dose of urea in the presence of different doses of compound 3e (0.025, 0.05, 0.01 and 0.02 µM), compound 6a (0.00, 0.0011, 0.0022, and 0.0044 µM), compound 9e (0.00, 0.015, 0.03 and 0.06 µM) and compound 12d (0.0130, 0.026, 0.052, 0.104 and 0.208 µM). In detail the urea doses were varied between 100, 50, 25, 12.5, 6.25 and 3.125 mM mM for urease kinetics studies and the rest of the procedure was same for all kinetic studies as described in the urease inhibition assay protocol. Maximal initial velocities were determined from the initial linear portion of the absorbances up to 10 min after the addition of enzyme at per minute’s intervals. The inhibition type of the enzyme was assayed by Lineweaver–Burk plots of the inverse of velocities (1/V) versus the inverse of substrate concentration 1/[S] mM^−1. The EI dissociation constant Ki was determined by the secondary plot of 1/V versus inhibitor concentration and the ESI dissociation constant Ki′ was calculated from the intercept versus inhibitor concentrations. Urease activity was determined by measuring ammonia production using the indophenol method as reported previously. The results (change in absorbance per min) were recorded at 625 nm using a microplate reader (Optimax Tunable, Sunnyvale, CA, USA).

[3] = Free radical scavenging assay (DPPH); details: in comparison to the reference drug vitamin C
Procedure: Radical scavenging activity was determined by adjusting the already reported 2,2-diphenyl-1-picrylhydrazyl (DPPH) assay method. The assay arrangement comprised 100 µL of DPPH (150 µM), 20 µL of increasing concentrations of test compounds and the volume was adjusted to 200 µL in each well with DMSO. At a room temperature, the reaction mixture was incubated for 30 min. Ascorbic acid (Vitamin C) was utilized as a model inhibitor. The assay estimations were done by using a micro plate reader (OPTIMax, Tunable, Sunnyvale, CA, USA) at 517 nm. The response rates were analyzed and the percent inhibition caused by the presence of the tested inhibitor was calculated. Each concentration was analyzed in three independent experiments run thrice.

[4] = 100 mM urea, pH 8.2, 37 °C, read-out: Urease Activity IC50 ± SEM
[5] = Urease Activity IC50 ± SEM, 100 mM urea, pH 8.2, 37 °C

Work on “2-((2,3-Dichlorophenyl)sulfonyl)hydrazine-1-carbothioamide [Compound 6d]” yielded an IC50 [1, 4] of 95 ± 4 nM.
Work on “2-((3,5-Dimethylphenyl)sulfonyl)hydrazine-1-carbothioamide [Compound 6e]” yielded an IC50 [1, 4] of 174 ± 9 nM.
Work on “2-((4-Methyl-3-nitrophenyl)sulfonyl)hydrazine-1-carbothioamide [Compound 6f]” yielded an IC50 [1, 4] of 127 ± 7.6 nM.
With Cc1ccc(S(=O)(=O)Nc2ccc(S(=O)(=O)Nc3ncccn3)cc2)cc1 [Compound 6a, 4-Methyl-N-(4-(N-(pyrimidin-2-yl)sulfamoyl)phenyl)benzenesulfonamide] the IC50 [1, 5] was 2.23 nM and 2.2 nM and 2 nM, the melting point was 223 to 225 °C and the Ki [2] was 1.1 nM. The “Ki′ (ESI dissociation constant)” value [2] was 1.6 nM, the Vmax ([2]; inhibitor dose 0.0011 µM) was 0.00769 ΔA/Min and the Vmax ([2]; inhibitor dose 0.0022 µM) was 0.00493 ΔA/Min. The Vmax ([2]; inhibitor dose 0.0044 µM) was 0.00351 ΔA/Min and the “Inhibition Type” value [2] was “mixed type of mode inhibition”.
Work on O=[N+]([O-])c1ccccc1S(=O)(=O)Nc1ccc(S(=O)(=O)Nc2ncccn2)cc1 [Compound 6b, 2-Nitro-N-(4-(N-(pyrimidin-2-yl)sulfamoyl)phenyl)benzenesulfonamide] yielded an IC50 ([1]; read-out: Urease Activity IC50 ± SEM, 100 mM urea, pH 8.2, 37 °C) of 233 ± 11 nM.
For O=S(=O)(Nc1ccc(S(=O)(=O)Nc2ncccn2)cc1)c1ccc(-c2ccccc2)cc1 [Compound 6c, N-(4-(N-(pyrimidin-2-yl)sulfamoyl)phenyl)-[1,1′-biphenyl]-4-sulfonamide], the IC50 [1, 5] was 141 ± 7 nM and the melting point was 168 to 170 °C.
Compound Cc1ccc(S(=O)(=O)NC23CC4CC(CC(C4)C2)C3)cc1 [Compound 9a, N-(Adamantan-1-yl)-4-methylbenzenesulfonamide] has an IC50 [1, 5] of 289 ± 15 nM.
Work on O=[N+]([O-])c1ccc(S(=O)(=O)NC23CC4CC(CC(C4)C2)C3)cc1 [Compound 9b, N-(Adamantan-1-yl)-4-nitrobenzenesulfonamide] yielded an IC50 [1, 5] of 27.6 ± 1 nM.
With O=S(=O)(NC12CC3CC(CC(C3)C1)C2)c1ccc(-c2ccccc2)cc1 [Compound 9c, N-(Adamantan-1-yl)-[1,1′-biphenyl]-4-sulfonamide] the IC50 [1, 5] was 17.8 nM.
O=S(=O)(NC12CC3CC(CC(C3)C1)C2)c1cccc(Cl)c1Cl [Compound 9d, N-(Adamantan-1-yl)-2,3-dichlorobenzenesulfonamide] showed an IC50 [1, 5] of 53.3 ± 1 nM and a melting point of 221 to 230 °C.
Cc1cc(C)cc(S(=O)(=O)NC23CC4CC(CC(C4)C2)C3)c1 [Compound 9e, N-(Adamantan-1-yl)-3,5-dimethylbenzenesulfonamide] showed an IC50 [1, 5] of 25 nM, a melting point of 162 to 164 °C and a Ki [2] of 22.5 nM. For the same compound, the Vmax ([2]; inhibitor dose 0.013 µM) was 0.00299 ΔA/Min, the Vmax ([2]; inhibitor dose 0.015 µM) was 0.00127 ΔA/Min and the Vmax ([2]; inhibitor dose 0.03 µM) was 0.00108 ΔA/Min. The Vmax ([2]; inhibitor dose 0.06 µM) was 0.00085 ΔA/Min and the “Inhibition Type” value [2] was “non-competitive mode of inhibition; also recorded: non-competitive mechanism; also recorded: Noncompetitive”.
For Cc1ccc(S(=O)(=O)NC23CC4CC(CC(C4)C2)C3)cc1[N+](=O)[O-] [Compound 9f, N-(Adamantan-1-yl)-4-methyl-3-nitrobenzenesulfonamide], the IC50 [1, 5] was 55.8 ± 1 nM.
For Cc1ccc(S(=O)(=O)NNC(N)=S)cc1 [Compound 12a, 2-Tosylhydrazine-1-carbothioamide], the IC50 [1, 5] was 225 ± 6 nM and the radical scavenging potency [3] was “excellent radical scavenging potency”.
For NC(=S)NNS(=O)(=O)c1ccc([N+](=O)[O-])cc1 [Compound 12b, 2-((4-Nitrophenyl)sulfonyl)hydrazine-1-carbothioamide], the IC50 [1, 5] was 141 ± 4 nM, the melting point was 160 to 162 °C and the radical scavenging potency [3] was “excellent radical scavenging potency”.
NC(=S)NNS(=O)(=O)c1ccc(-c2ccccc2)cc1 [Compound 12c, 2-([1,1′-Biphenyl]-4-ylsulfonyl)hydrazine-1-carbothioamide] gave an IC50 [1, 5] of 186 ± 7 nM.
In the case of NC(=S)NNS(=O)(=O)c1cccc(Cl)c1Cl [Compound 12d, 2-((2,3-Dichlorophenyl)sulfonyl)hydrazine-1-carbothioamide], the IC50 [1, 5] is reported as 26.6 nM and 26 nM, the melting point is reported as 229 to 231 °C and the radical scavenging potency [3] is reported as “excellent radical scavenging potency”. For the same compound, the Ki [2] was 53 nM, the “Ki′ (ESI dissociation constant)” value [2] was 125 nM and the Vmax ([2]; inhibitor dose 0.026 µM) was 0.00213 ΔA/Min. The Vmax ([2]; inhibitor dose 0.052 µM) was 0.00194 ΔA/Min, the Vmax ([2]; inhibitor dose 0.104 µM) was 0.0016 ΔA/Min and the Vmax ([2]; inhibitor dose 0.208 µM) was 0.001 ΔA/Min. For the same compound, the “Inhibition Type” value [2] was “mixed type of mode inhibition”.
For Cc1cc(C)cc(S(=O)(=O)NNC(N)=S)c1 [Compound 12e, 2-((3,5-Dimethylphenyl)sulfonyl)hydrazine-1-carbothioamide], the IC50 [1, 5] was 96 ± 4 nM, the melting point was 160 to 162 °C and the radical scavenging potency [3] was “excellent radical scavenging potency”.
For Cc1ccc(S(=O)(=O)NNC(N)=S)cc1[N+](=O)[O-] [Compound 12f, 2-((4-Methyl-3-nitrophenyl)sulfonyl)hydrazine-1-carbothioamide], the IC50 [1, 5] was 67 ± 2.9 nM, the melting point was 160 to 163 °C and the radical scavenging potency [3] was “excellent radical scavenging potency”.
For NC(N)=S [Thiourea, reference compound], the IC50 [1, 4] was 17810 ± 96 nM.
